Experimental data: the NIST ThermoML archive (doi:10.1021/je050460d)

Experiments:
[1] = 101.33 kPa, Liquid; for viscosity: Capillary tube (Ostwald / Ubbelohde) method; for mass density: Vibrating tube method
[2] = refractive index (Na D-line) (dimensionless); details: 101.33 kPa, Liquid, Standard Abbe refractometry
[3] = xn = mol fraction of the nth substance listed; details: 101 kPa, Liquid, x1 = 1; for viscosity: Capillary tube (Ostwald / Ubbelohde) method; for mass density: Vibrating tube method

CCCCCCn1cc[n+](C)c1.[Cl-] [1-hexyl-3-methylimidazolium chloride]
Details	mass density, [1] [kg/m3]	refractive index, [2]	viscosity, [1] [mPa·s]
298.15 K	1039.67	1.5172	18089
303.15 K	1036.81	1.5158	–
308.15 K	1033.96	1.51437	–
313.15 K	1031.13	1.51294	3429
318.15 K	1028.3	1.51151	–
323.15 K	1025.49	1.51009	–
328.15 K	1022.69	1.50868	942.1
333.15 K	1019.89	1.50727	–
338.15 K	1017.11	1.50586	–
343.15 K	1014.32	1.50445	339.5

CCCCCCCC[n+]1ccn(C)c1.[Cl-] [1-methyl-3-octylimidazolium chloride]
Details	mass density, [1] [kg/m3]	refractive index, [2]	viscosity, [1] [mPa·s]
298.15 K	1008.82	1.50987	20883
303.15 K	1005.94	1.50838	–
308.15 K	1003.06	1.50689	–
313.15 K	1000.2	1.50543	4066
318.15 K	997.37	1.50396	–
323.15 K	994.5	1.5025	–
328.15 K	991.67	1.50103	1091
333.15 K	988.85	1.49956	–
338.15 K	986.04	1.4981	–
343.15 K	983.24	1.49664	387.2

O [water] + CCCCCCCC[n+]1ccn(C)c1.[Cl-]
[3]
Details	mass density [kg/m3]	viscosity [mPa·s]
298.15 K	–	0.9
313.15 K	–	0.66
328.15 K	985.68	0.52
343.15 K	977.75	0.42

O [water] + CCCCCCn1cc[n+](C)c1.[Cl-]
[3]
Details	mass density [kg/m3]	viscosity [mPa·s]
298.15 K	–	0.895
313.15 K	–	0.658
328.15 K	985.68	0.519
343.15 K	977.75	0.419
